Measurements published in patent US20260152794A1, “EFFICACY OF CHRONIC PELVIC PAIN TREATMENT” (THE UNIVERSITY COURT OF THE UNIVERSITY OF EDINBURGH, priority 2022, published 2026).

Columns and labels:
[1] = test system: women with chronic pelvic pain; assay: GaPP2 trial secondary analysis: gabapentin analgesic (pain) response, worst and average pain on numerical rating scale; format: in vivo, human; conditions: for Average pain (NRS), End of study: mean; for Average pain (NRS), End of study / Worst pain (NRS), End of study: numerical rating scale 1-10; for Worst pain (NRS), End of study: median
Excerpt: (§1) This study is a planned secondary analysis of the GaPP2 trial, a UK-based multicentre, randomised, placebo-controlled trial of gabapentin versus placebo in women with chronic pelvic pain. Trial protocol including ethical approval and exclusion and inclusion criteria are published in full elsewhere. (17) All participants were women aged 18-50 years of age, were using or willing to use contraception to avoid pregnancy and had no obvious pelvic pathology at laparoscopy which must have taken place at least 2 weeks and less than 36 months prior to consent. Participants were randomly assigned to gabapentin (titrated to maximum dose 2700 mg daily) or placebo for 16 weeks. At inclusion to the trial, participants were asked to provide a saliva sample for inclusion in this study.
(§2) Cases were categorised into two phenotypes assessing the analgesic response to gabapentin and the degree of intolerance (side-effect burden). Gabapentin analgesic response was defined categorically using the coprimary outcomes of the GaPP2 trial: worst and average pain. Gabapentin ‘responders’ were defined as having reported a ≥30% reduction in worst and/or average pain scores on a numerical rating scale (1-10) after 12 weeks of gabapentin exposure. Gabapentin intolerance was also categorised categorically using a cut-off of ≥3 side-effects reported during the study period. Cases were categorised into ≥3 side-effects and <3 side-effects.

[2] = test system: women with chronic pelvic pain; assay: GaPP2 trial secondary analysis: gabapentin intolerance (side-effect burden); format: in vivo, human; conditions: side-effects reported during the study period; genotyped participants
Excerpt: as §1
as §2, with “Cases were categorised into ≥3 side-effects and <3 side-effects.” left out

[3] = test system: women with chronic pelvic pain; conditions: GaPP2 trial, women with CPP (reference 7); cited from earlier work
[4] = test system: women with chronic pelvic pain; conditions: embedded mechanistic study of GaPP2 (reference 8); cited from earlier work
[5] = test system: women with chronic pelvic pain; assay: Mechanistic fMRI study: brain response to abdominal punctate stimuli before and after 12 weeks of treatment; format: in vivo, human; conditions: rs4442490 TT responders (n = 2) compared with TG/GG non-responders (n = 5); brain regions of Table 4
Excerpt: Within the sample taking part in the gabapentin RCT, a small number also took part in a mechanistic fMRI study, undergoing MRI brain scans before and after 12 weeks of treatment. […] Punctate task fMRI pre-processing is described in the supplementary materials. For those for whom both genetic and imaging data was available, the gabapentin pre- and post-treatment scans were compared. The first-level contrast of post-treatment>pre-treatment punctate vs rest was taken into a random effects analysis comparing SNP variants, with clusters achieving a whole-brain, FWE-corrected significance of p<0.05 being reported.

[6] = test system: women with chronic pelvic pain; conditions: GaPP2 trial, women with CPP (reference 7); cited from earlier work; remark: listed apart in the source
[7] = Pain non-responder group (n = 46)
[8] = after 12 weeks of gabapentin exposure, genotyped participants

Structure (SMILES): NCC1(CC(=O)O)CCCCC1 [gabapentin]
- Average pain (NRS), End of study [1, 7]: 5.8
- Worst pain (NRS), End of study [1, 7]: 9
- Average pain (NRS), End of study ([1]; Pain responder group (n = 31), gabapentin titrated to maximum 2700 mg daily): 2.5
- Worst pain (NRS), End of study ([1]; Pain responder group (n = 31)): 6
- number of pain non-responders [1, 8]: (n = 46)
- number of pain responders (≥30% reduction in worst and/or average pain scores) [1, 8]: (n = 31)
- average reduction in average pain ([1]; subjects in the gabapentin pain responder group): 47%
- number of participants with <3 side-effects [2]: <3 side-effects (n = 23)
- number of participants with ≥3 side-effects [2]: ≥3 side-effects (n = 53)
- side-effects versus placebo [3]: associated with more side-effects
- effect on brain region in response to abdominal punctate stimuli (functional MRI) [4]: appeared to exert an effect on the anterior cingulate cortex
- fMRI punctate activation after treatment versus before [5]: decrease in punctate activation
- improvement of worst or average pain scores versus placebo [6]: not superior to placebo
